Values belong to the molecule of their own block, whether it stands above or below them.
Assays:
[1] = target: T1, PFKL 6-phosphofructokinase, liver type (Homo sapiens, UniProt P17858); test: competitive isoTOP-ABPP; format: binding; conditions: for isoTOP-ABPP ratio (R) at liganded lysine P17858_K315 / isoTOP-ABPP ratio (R) at liganded lysine P17858_K677 / isoTOP-ABPP ratio (R) at liganded lysine P17858_K715 / R value (DMSO/fragment) for probe 1 labeling / isoTOP-ABPP reactivity ratio at lysine P17858_K315 / isoTOP-ABPP reactivity ratio at lysine P17858_K677 / isoTOP-ABPP reactivity ratio at lysine P17858_K715: 50 uM, in vitro; for isoTOP-ABPP ratio (R) at liganded lysine P17858_K315 / isoTOP-ABPP ratio (R) at liganded lysine P17858_K677 / isoTOP-ABPP ratio (R) at liganded lysine P17858_K715: sol, 231; for R value (DMSO/fragment) for probe 1 labeling / isoTOP-ABPP reactivity ratio at lysine P17858_K315 / isoTOP-ABPP reactivity ratio at lysine P17858_K677 / isoTOP-ABPP reactivity ratio at lysine P17858_K715: 231 sol; for isoTOP-ABPP ratio, lysine P17858_K315 / isoTOP-ABPP ratio, lysine P17858_K677 / isoTOP-ABPP ratio, lysine P17858_K715: 50 uM_231_sol_in vitro; for isoTOP-ABPP ratio, lysine P17858_K677: possible other lysine P17858_K681; for isoTOP-ABPP ratio, lysine P17858_K715: possible other lysine P17858_K714
T1 construct: isoTOP-ABPP experiments performed in cell lysates (in vitro); endogenous in cells; host or cells: soluble proteome of human cancer cell lines (MDA-MB-231; Ramos and Jurkat also prepared)
T1 sequence (P17858 1-780): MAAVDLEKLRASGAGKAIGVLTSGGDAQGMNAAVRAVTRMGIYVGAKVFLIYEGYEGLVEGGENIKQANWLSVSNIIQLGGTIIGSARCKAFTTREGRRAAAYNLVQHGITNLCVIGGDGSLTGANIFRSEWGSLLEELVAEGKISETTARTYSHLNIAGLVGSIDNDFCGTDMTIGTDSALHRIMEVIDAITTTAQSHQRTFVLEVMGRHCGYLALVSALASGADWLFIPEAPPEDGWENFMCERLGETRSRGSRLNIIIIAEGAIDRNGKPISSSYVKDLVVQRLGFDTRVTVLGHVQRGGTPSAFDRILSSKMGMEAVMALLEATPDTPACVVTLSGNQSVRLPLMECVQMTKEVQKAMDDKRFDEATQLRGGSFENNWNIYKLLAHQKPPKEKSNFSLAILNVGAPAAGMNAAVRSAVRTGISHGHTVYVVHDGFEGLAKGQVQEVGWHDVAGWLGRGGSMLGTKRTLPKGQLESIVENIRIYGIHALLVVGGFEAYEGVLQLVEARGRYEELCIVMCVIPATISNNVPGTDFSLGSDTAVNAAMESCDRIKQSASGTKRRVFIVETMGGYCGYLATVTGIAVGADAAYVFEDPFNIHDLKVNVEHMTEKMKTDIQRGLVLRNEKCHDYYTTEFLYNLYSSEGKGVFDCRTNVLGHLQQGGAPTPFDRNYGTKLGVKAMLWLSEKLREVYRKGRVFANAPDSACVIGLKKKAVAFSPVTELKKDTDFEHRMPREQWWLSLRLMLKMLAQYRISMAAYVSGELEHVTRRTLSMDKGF
Summary of the method: (§1)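 Cell lysate (0.5 ml) was pre-treated with fragment, 50 μM for activated esters or 100 μM for guanidinylating agents, versus DMSO, then labeled 1 h at ambient temperature with 0.1 mM STP-alkyne. Light/heavy TEV tags attached by CuAAC; R = DMSO/compound MS1 peak-area ratio, median per lysine.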

[2] = target: T2, RQCD1 Cell differentiation protein RCD1 homolog (Homo sapiens, UniProt Q92600); test: competitive isoTOP-ABPP; format: binding; conditions: for isoTOP-ABPP ratio (R) at liganded lysine Q92600_K230: sol, 231; for R value (DMSO/fragment) for probe 1 labeling: Q92600_K230; for isoTOP-ABPP ratio, lysine Q92600_K230: 50 uM_231_sol_in vitro
T2 construct: isoTOP-ABPP experiments performed in cell lysates (in vitro); endogenous in cells; host or cells: soluble proteome of human cancer cell lines (MDA-MB-231; Ramos and Jurkat also prepared)
Summary of the method: as §1

T2 sequence (Q92600 whole entry, the tested form may be a part): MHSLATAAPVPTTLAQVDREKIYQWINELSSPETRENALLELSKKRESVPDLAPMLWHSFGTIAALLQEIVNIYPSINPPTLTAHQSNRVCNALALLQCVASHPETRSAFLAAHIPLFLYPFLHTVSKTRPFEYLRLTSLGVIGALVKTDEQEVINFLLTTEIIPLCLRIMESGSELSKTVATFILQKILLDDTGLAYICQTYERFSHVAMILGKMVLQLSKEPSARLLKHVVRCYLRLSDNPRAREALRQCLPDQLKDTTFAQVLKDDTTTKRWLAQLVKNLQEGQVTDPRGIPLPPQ

SMILES: CC(C)(C)OC(=O)NCCCC(=O)Oc1ccc([N+](=O)[O-])cc1[N+](=O)[O-] [fragment 41, 2,4-Dinitrophenyl 4-((tert-butoxycarbonyl)amino)butanoate]
isoTOP-ABPP ratio (R) at liganded lysine P17858_K315 [1]: 2.3
isoTOP-ABPP ratio (R) at liganded lysine P17858_K677 [1]: 5.6
isoTOP-ABPP ratio (R) at liganded lysine P17858_K715 [1]: 2.0
isoTOP-ABPP ratio (R) at liganded lysine Q92600_K230 ([2]; 50 uM, in vitro): 2.6

R value (DMSO/fragment) for probe 1 labeling ([1]; P17858_K677): 2.7
R value (DMSO/fragment) for probe 1 labeling ([1]; P17858_K715): 2.9
R value (DMSO/fragment) for probe 1 labeling ([2]; 50 uM, 231 sol, in vitro): 1.0
SMILES: Cn1cc(CC(=O)Oc2c(F)c(F)c(F)c(F)c2F)c2ccccc21 [fragment 22, Pentafluorophenyl 2-(1-methyl-1H-indol-3-yl)acetate]

SMILES: O=C(Oc1ccc([N+](=O)[O-])cc1[N+](=O)[O-])c1ccc(-c2ccccc2)cc1 [fragment 37, 2,4-Dinitrophenyl [1,1′-biphenyl]-4-carboxylate]
isoTOP-ABPP ratio (R) at liganded lysine P17858_K315 [1]: 1.3
isoTOP-ABPP ratio (R) at liganded lysine P17858_K677 [1]: 1.1
isoTOP-ABPP ratio (R) at liganded lysine P17858_K715 [1]: 1.1
isoTOP-ABPP ratio (R) at liganded lysine Q92600_K230 ([2]; 50 uM, in vitro): 0.8

SMILES: COc1cc(CCC(=O)Oc2ccc([N+](=O)[O-])cc2[N+](=O)[O-])cc(OC)c1OC [fragment 33, 2,4-Dinitrophenyl 3-(3,4,5-trimethoxyphenyl)propanoate]
isoTOP-ABPP reactivity ratio at lysine P17858_K315 [1]: 0.8
isoTOP-ABPP reactivity ratio at lysine P17858_K677 [1]: 2.0
isoTOP-ABPP reactivity ratio at lysine P17858_K715 [1]: 1.1
isoTOP-ABPP reactivity ratio at lysine Q92600_K230 ([2]; 50 uM, 231 sol, in vitro): 2.5

R value (DMSO/fragment) for probe 1 labeling ([1]; P17858_K677): 18.8
R value (DMSO/fragment) for probe 1 labeling ([1]; P17858_K715): 1.3
R value (DMSO/fragment) for probe 1 labeling ([2]; 50 uM, 231 sol, in vitro): 0.9
SMILES: O=C(Oc1c(F)c(F)c(F)c(F)c1F)C(c1ccccc1)c1ccccc1 [fragment 20, Pentafluorophenyl 2,2-diphenylacetate]

SMILES: O=C(Oc1ccc([N+](=O)[O-])cc1[N+](=O)[O-])c1ccc2ccccc2n1 [fragment 35, 2,4-Dinitrophenyl quinoline-2-carboxylate]
isoTOP-ABPP ratio (R) at liganded lysine P17858_K677 [1]: 1.5
isoTOP-ABPP ratio (R) at liganded lysine P17858_K715 [1]: 1.3
isoTOP-ABPP ratio (R) at liganded lysine Q92600_K230 ([2]; 50 uM, in vitro): 0.9

SMILES: O=C(CCc1ccc2c(c1)OCO2)Oc1ccc([N+](=O)[O-])cc1[N+](=O)[O-] [fragment 45, 2,4-Dinitrophenyl 3-(benzo[d][1,3]dioxol-5-yl)propanoate]
isoTOP-ABPP ratio, lysine P17858_K315 [1]: 1.8
isoTOP-ABPP ratio, lysine P17858_K677 [1]: 2.9
isoTOP-ABPP ratio, lysine P17858_K715 [1]: 10.9
isoTOP-ABPP ratio, lysine Q92600_K230 [2]: 1.7

R value (DMSO/fragment) for probe 1 labeling ([1]; P17858_K677): 1.8
R value (DMSO/fragment) for probe 1 labeling ([1]; P17858_K715): 0.6
R value (DMSO/fragment) for probe 1 labeling ([2]; 50 uM, 231 sol, in vitro): 1.1
SMILES: COc1cc(CCC(=O)Oc2c(F)c(F)c(F)c(F)c2F)cc(OC)c1OC [fragment 23, Pentafluorophenyl 3-(3,4,5-trimethoxyphenyl)propanoate]

SMILES: O=C(Oc1ccc([N+](=O)[O-])cc1[N+](=O)[O-])c1ccccc1Nc1cccc(C(F)(F)F)c1 [fragment 40, 2,4-Dinitrophenyl 2-((3-(trifluoromethyl)phenyl)amino)benzoate]
isoTOP-ABPP ratio (R) at liganded lysine P17858_K677 [1]: 0.9
isoTOP-ABPP ratio (R) at liganded lysine P17858_K715 [1]: 1.1
isoTOP-ABPP ratio (R) at liganded lysine Q92600_K230 ([2]; 50 uM, in vitro): 0.9

SMILES: O=C(ON1C(=O)CCC1=O)c1cc(C(F)(F)F)cc(C(F)(F)F)c1 [fragment 46, 3,5-Bis(trifluoromethyl)benzoic acid NHS ester]
isoTOP-ABPP ratio, lysine P17858_K315 [1]: 0.6
isoTOP-ABPP ratio, lysine P17858_K677 [1]: 1.4
isoTOP-ABPP ratio, lysine P17858_K715 [1]: 0.8
isoTOP-ABPP ratio, lysine Q92600_K230 [2]: 1.1

SMILES: O=C(Oc1ccc([N+](=O)[O-])cc1[N+](=O)[O-])c1ccc(Oc2ccccc2)cc1 [fragment 39, 2,4-Dinitrophenyl 4-phenoxybenzoate]
isoTOP-ABPP ratio (R) at liganded lysine P17858_K677 [1]: 1.3
isoTOP-ABPP ratio (R) at liganded lysine P17858_K715 [1]: 0.6
isoTOP-ABPP ratio (R) at liganded lysine Q92600_K230 ([2]; 50 uM, in vitro): 0.8

isoTOP-ABPP reactivity ratio at lysine P17858_K315 [1]: 0.9
isoTOP-ABPP reactivity ratio at lysine P17858_K677 [1]: 1.6
isoTOP-ABPP reactivity ratio at lysine P17858_K715 [1]: 1.3
SMILES: O=C(Oc1c(F)c(F)c(F)c(F)c1F)c1ccc2ccccc2n1 [fragment 25, Pentafluorophenyl quinoline-2-carboxylate]
